Experimental data published in patent US5690959A, “Pharmaceutical thermal infusion process” (priority 1993, dated 1997).
Structures can show the parent of a compound that is named as a salt.

Legend:
[1] = cited from earlier work
[2] = Degradation of clavulanate on thermal infusion; format: physicochemical
[3] = cited from earlier work; remark: listed apart in the source

SMILES	solubility in water [1]	degradation of clavulanate ([2]; more appropriate thermal infusion temperature)	degradation of clavulanate ([2]; thermal infusion at the more extreme temperatures)	hydrolytic degradation ([3]; contacted by water)	spontaneous exothermic reaction ([3]; transport in bulk)
O=C(O)[C@H]1/C(=C/CO)O[C@@H]2CC(=O)N21 [clavulanate]	highly water soluble	eliminates the degradation	minimal degree of degradation		
CN/C(=N/CCSCc1nc[nH]c1C)NC#N [Cimetidine, N"-cyano-N-methyl-N'-[2-[[(5-methyl-1-H-imidazol-4-yl)methyl]thio]-ethyl]-guanidine]	moderately soluble in water				
O=C(O)[C@H]1/C(=C/CO)O[C@@H]2CC(=O)N21 [salts of clavulanic acid, Z-(3R,5R)-2-(β-hydroxyethyldiene) clavam-3-carboxylate]	freely water soluble			undergo spontaneous hydrolytic degradation when contacted by water	undergo a spontaneous exothermic reaction with the release of large quantities of gas and fumes
